Measured values as given in patent US10399989B2, “Pyrazolopyrimidine derivatives as BTK inhibitors for the treatment of cancer” (Loxo Oncology, Inc., priority 2016, dated 2019).
Like-named read-outs stand apart in the source and are kept apart here.

Assays:
BTK^WT = BTK^WT (Homo sapiens (Human), UniProt Q06187); test: BTK^WT binding affinity (TR-FRET, LanthaScreen)
Method in brief: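 Tracer-displacement TR-FRET: 2.5 nM recombinant BTK, 2 nM Eu anti-His antibody and 15 nM Kinase Tracer 236 in Kinase Buffer A with inhibitor for 5 h. Emission read at 615/665 nm (excitation 340 nm); IC50 from variable-slope fit of log concentration vs response.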

[1] = test system: OCI-Ly10 human DLBCL cells; test: OCI-Ly10 anti-proliferative activity (Resazurin, 72 h); format: cell-based; conditions: Homo sapiens, OCI-Ly10, 72 h, read-out: Proliferation OCI-Ly10-IC50
Method in brief: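 Resazurin fluorescence (590 nm, 5 h dye incubation) read after 72 h compound exposure at 37 °C; NFκB-dependent cells seeded at 7.5×10^3/well in 2.5% FBS medium. Day 0 signal subtracted, values normalised to DMSO control; IC50 from log[inhibitor] vs response, variable-slope fit.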

EGFR = EGFR (Homo sapiens (Human), UniProt P00533); test: EGFR binding affinity (TR-FRET, LanthaScreen); conditions: 5 h incubation
Chain of EGFR (P00533 25-1210): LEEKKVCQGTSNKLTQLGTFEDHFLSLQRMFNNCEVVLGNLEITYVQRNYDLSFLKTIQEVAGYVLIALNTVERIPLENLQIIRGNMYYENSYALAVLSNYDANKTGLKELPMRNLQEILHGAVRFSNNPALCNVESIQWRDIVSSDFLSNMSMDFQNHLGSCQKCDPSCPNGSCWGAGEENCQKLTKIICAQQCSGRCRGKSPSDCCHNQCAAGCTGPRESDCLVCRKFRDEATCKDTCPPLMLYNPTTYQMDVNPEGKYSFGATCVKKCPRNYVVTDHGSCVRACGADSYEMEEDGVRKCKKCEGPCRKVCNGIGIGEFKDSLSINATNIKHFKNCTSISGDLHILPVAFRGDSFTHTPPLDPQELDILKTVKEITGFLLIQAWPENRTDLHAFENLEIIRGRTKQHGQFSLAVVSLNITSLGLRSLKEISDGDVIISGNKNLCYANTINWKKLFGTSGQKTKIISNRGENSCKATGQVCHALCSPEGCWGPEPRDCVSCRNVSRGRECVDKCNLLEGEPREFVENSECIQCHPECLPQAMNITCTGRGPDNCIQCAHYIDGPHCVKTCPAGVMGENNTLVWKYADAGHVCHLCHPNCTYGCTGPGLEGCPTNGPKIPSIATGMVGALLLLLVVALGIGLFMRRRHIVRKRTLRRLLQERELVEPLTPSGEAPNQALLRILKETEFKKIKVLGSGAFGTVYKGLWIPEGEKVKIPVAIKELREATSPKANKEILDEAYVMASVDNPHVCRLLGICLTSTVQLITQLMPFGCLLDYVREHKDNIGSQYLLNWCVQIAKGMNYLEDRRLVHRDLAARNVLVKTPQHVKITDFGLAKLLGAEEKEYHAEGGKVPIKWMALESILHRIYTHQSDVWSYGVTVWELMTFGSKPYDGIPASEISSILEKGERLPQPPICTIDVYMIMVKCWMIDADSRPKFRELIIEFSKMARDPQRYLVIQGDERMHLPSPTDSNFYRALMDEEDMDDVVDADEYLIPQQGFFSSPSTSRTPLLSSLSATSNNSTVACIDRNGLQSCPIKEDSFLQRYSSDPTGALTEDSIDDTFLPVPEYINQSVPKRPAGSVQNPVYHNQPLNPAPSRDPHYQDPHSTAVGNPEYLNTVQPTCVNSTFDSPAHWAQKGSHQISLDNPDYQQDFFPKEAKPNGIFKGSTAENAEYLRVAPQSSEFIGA
Method in brief: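 IC50 derived by variable-slope fit of TR-FRET signal (ex 340, em 615 and 665 nm) against inhibitor concentration. Mix contained recombinant GST-detected EGFR at 2.5 nM, Eu anti-GST antibody at 2 nM and Kinase Tracer 199 at 3 nM in Kinase Buffer A, 5 h incubation.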

BTK^C481S = BTK^C481S (Homo sapiens (Human), UniProt Q06187, C481S); test: BTK^C481S binding affinity (TR-FRET, LanthaScreen); conditions: 5 h incubation
Chain of BTK^C481S (Q06187 whole entry C481S): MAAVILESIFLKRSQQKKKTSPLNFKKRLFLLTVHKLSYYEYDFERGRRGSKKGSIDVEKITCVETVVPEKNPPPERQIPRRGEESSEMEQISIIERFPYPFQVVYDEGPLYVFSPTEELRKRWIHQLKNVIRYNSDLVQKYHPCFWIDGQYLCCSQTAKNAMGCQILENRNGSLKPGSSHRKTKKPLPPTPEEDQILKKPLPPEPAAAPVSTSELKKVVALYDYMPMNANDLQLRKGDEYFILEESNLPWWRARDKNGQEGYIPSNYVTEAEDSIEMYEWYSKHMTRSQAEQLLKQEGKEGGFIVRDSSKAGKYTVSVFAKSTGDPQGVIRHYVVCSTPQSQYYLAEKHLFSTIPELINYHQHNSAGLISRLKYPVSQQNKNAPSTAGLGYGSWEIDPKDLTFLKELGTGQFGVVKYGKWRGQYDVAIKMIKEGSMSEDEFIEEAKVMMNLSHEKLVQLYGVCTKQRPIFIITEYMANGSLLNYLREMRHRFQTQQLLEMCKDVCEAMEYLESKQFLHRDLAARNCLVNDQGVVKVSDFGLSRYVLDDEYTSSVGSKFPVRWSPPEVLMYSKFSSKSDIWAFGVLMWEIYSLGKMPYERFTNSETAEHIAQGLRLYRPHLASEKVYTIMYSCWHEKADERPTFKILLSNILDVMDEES
Method in brief: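 Tracer-displacement TR-FRET: 5 nM recombinant kinase, 2 nM Eu anti-His antibody and 30 nM Kinase Tracer 236 incubated 5 h with varying inhibitor in Kinase Buffer A. Read at 340 nm excitation, 615/665 nm emission. IC50 from log[inhibitor]–response variable-slope fit.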

[2] = TR-FRET binding, 5 h incubation, read-out: BTK^WT IC50
[3] = Table 6, numeric values, read-out: BTK Binding IC50

Chain of BTK^WT (Q06187 whole entry): as the sequence (Q06187 whole entry C481S) above, with S481C counted along it

SMILES	IC50 (BTK^WT; [2])	IC50 [1]	IC50 (EGFR)	IC50 (BTK^C481S)	IC50 (BTK^WT; [3])
CCOC(=O)C1CCC(n2nc(-c3ccc(CNC(=O)c4ccccc4OC)cc3)c3c(N)ncnc32)CC1 (centres unmarked) [Example 32, ethyl 4-[4-amino-3-[4-[[(2-methoxybenzoyl)amino]methyl]phenyl]pyrazolo[3,4-d]pyrimidin-1-yl]cyclohexanecarboxylate]	≤ 10 nM	10 to 100 nM	100 to 1000 nM	≤ 10 nM	–
COc1ccccc1C(=O)NCc1ccc(-c2nn(C3CCCOC3)c3ncnc(N)c23)cc1 (centres unmarked) [Example 34, N-[[4-(4-amino-1-tetrahydropyran-3-yl-pyrazolo[3,4-d]pyrimidin-3-yl)phenyl]methyl]-2-methoxy-benzamide]	≤ 10 nM	10 to 100 nM	1000 to 10000 nM	≤ 10 nM	–
COc1ccccc1C(=O)NCc1ccc(-c2nn([C@H]3C=C[C@H](OC(C)=O)C3)c3ncnc(N)c23)cc1 [Example 35, [(1R,4R)-4-[4-amino-3-[4-[[(2-methoxybenzoyl)amino]methyl]phenyl]pyrazolo[3,4-d]pyrimidin-1-yl]cyclopent-2-en-1-yl] acetate]	≤ 10 nM	10 to 100 nM	10 to 100 nM	≤ 10 nM	–
COc1ccccc1C(=O)NCc1ccc(-c2nn([C@H]3C=C[C@H](O)C3)c3ncnc(N)c23)cc1 [Example 36, N-[[4-[4-amino-1-[(1R,4R)-4-hydroxycyclopent-2-en-1-yl]pyrazolo[3,4-d]pyrimidin-3-yl]phenyl]methyl]-2-methoxy-benzamide]	≤ 10 nM	100 to 1000 nM	100 to 1000 nM	≤ 10 nM	–
COc1ccccc1C(=O)NCc1ccc(-c2nn(C3CCCC(O)C3)c3ncnc(N)c23)cc1 (centres unmarked) [Example 37, N-[[4-[4-amino-1-(3-hydroxycyclohexyl)pyrazolo[3,4-d]pyrimidin-3-yl]phenyl]methyl]-2-methoxy-benzamide]	≤ 10 nM	100 to 1000 nM	100 to 1000 nM	≤ 10 nM	1.7 nM
COc1ccccc1C(=O)NCc1ccc(-n2nc(C3CCCC3)c3ncnc(N)c32)cc1 [Example 38, N-[[4-(7-amino-3-cyclopentyl-pyrazolo[4,3-d]pyrimidin-1-yl)phenyl]methyl]-2-methoxy-benzamide]	≤ 10 nM	10 to 100 nM	10 to 100 nM	≤ 10 nM	–
COc1ccccc1C(=O)NCc1ccc(-c2nn(C3CCC(OC)CC3)c3ncnc(N)c23)cc1 (centres unmarked) [Example 39, N-[[4-[4-amino-1-(4-methoxycyclohexyl)pyrazolo[3,4-d]pyrimidin-3-yl]phenyl]methyl]-2-methoxy-benzamide]	≤ 10 nM	10 to 100 nM	100 to 1000 nM	≤ 10 nM	1.4 nM
COc1ccccc1C(=O)NCc1ccc(-c2nn(C3CC=CC3)c3ncnc(N)c23)cc1 [Example 40, N-[[4-(4-amino-1-cyclopent-3-en-1-yl-pyrazolo[3,4-d]pyrimidin-3-yl)phenyl]methyl]-2-methoxy-benzamide]	≤ 10 nM	10 to 100 nM	100 to 1000 nM	≤ 10 nM	–
CCOC(=O)C1CCCC(n2nc(-c3ccc(CNC(=O)c4ccccc4OC)cc3)c3c(N)ncnc32)C1 (centres unmarked) [Example 41, ethyl 3-[4-amino-3-[4-[[(2-methoxybenzoyl)amino]methyl]phenyl]pyrazolo[3,4-d]pyrimidin-1-yl]cyclohexanecarboxylate]	≤ 10 nM	100 to 1000 nM	100 to 1000 nM	≤ 10 nM	1.2 nM
COc1ccccc1C(=O)NCc1ccc(-c2nn(C3CCCC(C(=O)N(C)C)C3)c3ncnc(N)c23)cc1 (centres unmarked) [Example 42, N-[[4-[4-amino-1-[3-(dimethylcarbamoyl)cyclohexyl]pyrazolo[3,4-d]pyrimidin-3-yl]phenyl]methyl]-2-methoxy-benzamide]	≤ 10 nM	100 to 1000 nM	1000 to 10000 nM	≤ 10 nM	–
COc1ccc(F)cc1C(=O)NCc1ccc(-c2nn(C(C)(C)C)c3ncnc(N)c23)cc1 [Example 43, N-[[4-(4-amino-1-tert-butyl-pyrazolo[3,4-d]pyrimidin-3-yl)phenyl]methyl]-5-fluoro-2-methoxy-benzamide]	≤ 10 nM	10 to 100 nM	100 to 1000 nM	≤ 10 nM	–
COc1ccccc1C(=O)NCc1ccc(-c2nn([C@@H]3C=C[C@H](O)C3)c3ncnc(N)c23)cc1 [Example 44, N-[[4-[4-amino-1-[(1S,4R)-4-hydroxycyclopent-2-en-1-yl]pyrazolo[3,4-d]pyrimidin-3-yl]phenyl]methyl]-2-methoxy-benzamide]	≤ 10 nM	100 to 1000 nM	1000 to 10000 nM	≤ 10 nM	–
COc1ccccc1C(=O)NCc1ccc(-c2nn([C@@H]3C[C@@H](O)C4CC43)c3ncnc(N)c23)cc1 (stereo partly drawn) [Example 45, N-[[4-[4-amino-1-[(2R,4R)-4-hydroxy-2-bicyclo[3.1.0]hexanyl]pyrazolo[3,4-d]pyrimidin-3-yl]phenyl]methyl]-2-methoxy-benzamide]	≤ 10 nM	100 to 1000 nM	100 to 1000 nM	≤ 10 nM	–
COc1ccccc1C(=O)NCc1ccc(-c2nn(C3CCC(OC(=O)c4ccc(C)cc4)CC3)c3ncnc(N)c23)cc1 (centres unmarked) [Example 46, [4-[4-amino-3-[4-[[(2-methoxybenzoyl)amino]methyl]phenyl]pyrazolo[3,4-d]pyrimidin-1-yl]cyclohexyl] 4-methylbenzoate]	10 to 100 nM	100 to 1000 nM	100 to 1000 nM	10 to 100 nM	–
COc1ccccc1C(=O)NCc1ccc(-c2nn([C@H]3C=C[C@@H](O)C3)c3ncnc(N)c23)cc1 [Example 47, N-[[4-[4-amino-1-[(1R,4S)-4-hydroxycyclopent-2-en-1-yl]pyrazolo[3,4-d]pyrimidin-3-yl]phenyl]methyl]-2-methoxy-benzamide]	≤ 10 nM	100 to 1000 nM	100 to 1000 nM	≤ 10 nM	–
COc1ccccc1C(=O)NCc1ccc(-c2nn([C@H]3C=C[C@@H](OC(=O)C(C)(C)C)C3)c3ncnc(N)c23)cc1 [Example 48, [(1S,4R)-4-[4-amino-3-[4-[[(2-methoxybenzoyl)amino]methyl]phenyl]pyrazolo[3,4-d]pyrimidin-1-yl]cyclopent-2-en-1-yl] 2,2-dimethylpropanoate]	10 to 100 nM	100 to 1000 nM	1000 to 10000 nM	≤ 10 nM	–
COc1ccccc1C(=O)NCc1ccc(-c2nn(C3C=CCCC3)c3ncnc(N)c23)cc1 (centres unmarked) [Example 49, N-[[4-(4-amino-1-cyclohex-2-en-1-yl-pyrazolo[3,4-d]pyrimidin-3-yl)phenyl]methyl]-2-methoxy-benzamide]	≤ 10 nM	10 to 100 nM	10 to 100 nM	≤ 10 nM	0.4 nM
COc1ccccc1C(=O)NCc1ccc(-c2nn([C@@H]3C=C[C@@H](O)C3)c3ncnc(N)c23)cc1 [Example 50, N-[[4-[4-amino-1-[(1S,4S)-4-hydroxycyclopent-2-en-1-yl]pyrazolo[3,4-d]pyrimidin-3-yl]phenyl]methyl]-2-methoxy-benzamide]	≤ 10 nM	100 to 1000 nM	100 to 1000 nM	≤ 10 nM	–
COc1ccccc1C(=O)NCc1ccc(-c2nn(C(C)(C)C)c3ncnc(N)c23)cc1 [Example 51, N-[[4-(4-amino-1-tert-butyl-pyrazolo[3,4-d]pyrimidin-3-yl)phenyl]methyl]-2-methoxy-benzamide]	≤ 10 nM	10 to 100 nM	10 to 100 nM	≤ 10 nM	0.6 nM
COc1ccccc1C(=O)NCc1ccc(-c2nn(C3CC4CC4C3)c3ncnc(N)c23)cc1 (centres unmarked) [Example 52, N-[[4-[4-amino-1-(3-bicyclo[3.1.0]hexanyl)pyrazolo[3,4-d]pyrimidin-3-yl]phenyl]methyl]-2-methoxy-benzamide]	≤ 10 nM	10 to 100 nM	10 to 100 nM	≤ 10 nM	–
COc1ccc(F)cc1C(=O)NCc1ccc(-c2nn([C@H]3C=C[C@H](O)C3)c3ncnc(N)c23)cc1 [Example 53, N-[[4-[4-Amino-1-[(1R,4R)-4-hydroxycyclopent-2-en-1-yl]pyrazolo[3,4-d]pyrimidin-3-yl]phenyl]methyl]-5-fluoro-2-methoxy-benzamide]	10 to 100 nM	1000 to 10000 nM	1000 to 10000 nM	≤ 10 nM	–
COc1ccccc1C(=O)NCc1ccc(-c2nn([C@H]3C=C[C@H](F)C3)c3ncnc(N)c23)cc1 [Example 54, N-[(4-{4-amino-1-[(1R,4R)-4-fluorocyclopent-2-en-1-yl]-1H-pyrazolo[3,4-d]pyrimidin-3-yl}phenyl)methyl]-2-methoxybenzamide]	≤ 10 nM	100 to 1000 nM	1000 to 10000 nM	≤ 10 nM	0.7 nM
CCO[C@H]1C=C[C@H](n2nc(-c3ccc(CNC(=O)c4ccccc4OC)cc3)c3c(N)ncnc32)C1 [Example 55, N-[(4-{4-amino-1-[(1R,4R)-4-ethoxycyclopent-2-en-1-yl]-1H-pyrazolo[3,4-d]pyrimidin-3-yl}phenyl)methyl]-2-methoxybenzamide]	10 to 100 nM	100 to 1000 nM	1000 to 10000 nM	10 to 100 nM	–
